Reference: patent publication US6355799B1, “Substituted benzene compounds, process for their preparation, and herbicidal and defoliant compositions containing them” (ISK Americas Incorporated, priority 1997, dated 2002)

How the values were obtained:
Type in all cases: in vivo
[1] = tested on: redroot pigweed (Amaranthus retroflexus, AMARE); test: Pre-emerge test, greenhouse herbicide activity screening; details: rating scale 0-100, 14 days after application
In short: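 Plants grown in 10 cm pots of sandy loam mix received acetone-dissolved compounds through a moving flat-fan nozzle. Doses ranged from 15 to 1000 g ai/ha. Pre-emerge pots were seeded one day earlier, post-emerge pots 8–21 days earlier. Fourteen days on, each pot was graded 0–100 for damage.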

[2] = tested on: barnyardgrass (Echinochloa crus-galli, ECHCG); test: as above; details: rating scale 0-100, 14 days after application
In short: (§1)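 Compounds in acetone were track-sprayed at 15-1000 g ai/ha (187 l/ha) on sandy loam pots: pre-emerge one day after seeding, post-emerge at 2-3 leaf stage with 0.25% v/v non-ionic surfactant. Phytotoxicity was rated 14 days later on a 0 (no damage) to 100 (complete death) scale.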

[3] = tested on: green foxtail (Setaria viridis, SETVI); test: as above; details: rating scale 0-100, 14 days after application
In short: as §1

[4] = tested on: ivyleaf morningglory (Ipomoea hederacea, IPOHE); test: as above; details: rating scale 0-100, 14 days after application
In short: as §1

[5] = tested on: johnsongrass (Sorghum halepense, SORHA); test: as above; details: rating scale 0-100, 14 days after application
In short: as §1

[6] = tested on: lambsquarters (Chenopodium album, CHEAL); test: as above; details: rating scale 0-100, 14 days after application
In short: as §1

[7] = tested on: large crabgrass (Digitaria sanguinalis, DIGSA); test: as above; details: rating scale 0-100, 14 days after application
In short: as §1

[8] = tested on: sicklepod (Cassia obtusifolia, CASOB); test: as above; details: rating scale 0-100, 14 days after application
In short: as §1

[9] = tested on: velvetleaf (Abutilon theophrasti, ABUTH); test: as above; details: rating scale 0-100, 14 days after application
In short: as §1

[10] = tested on: field corn (Zea mays L., var. Dekalb 535, CORN); test: Pre-emerge test, crop safety; details: rating scale 0-100, 14 days after application
In short: (§2)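 Fourteen days after spraying, crop and weed injury was graded visually from 0, no effect, to 100, every plant dead. Test substances were dissolved in acetone and applied at 15–1000 g ai/ha with a flat-fan nozzle. Application was either pre-emergence, one day after sowing, or post-emergence at the 2–3 leaf stage.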

[11] = tested on: upland rice (Oryza sp., var. Tebonnet, RICE); test: Pre-emerge test, crop safety; details: rating scale 0-100, 14 days after application
In short: as §2

[12] = tested on: barnyardgrass (Echinochloa crus-galli, ECHCG); test: Post-emerge test, greenhouse herbicide activity screening; details: rating scale 0-100 (0 no damage, 100 complete death), 14 days after application
In short: (§3)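 Compounds in acetone were track-sprayed at 15–1000 g ai/ha: pre-emergence onto soil sown the previous day, then top-watered to incorporate and later bottom-watered; post-emergence onto 2–3 leaf plants with 0.25% v/v surfactant, bottom-watered only. Ratings on a 0–100 phytotoxicity scale were taken at day 14.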

[13] = tested on: common ragweed (Ambrosia artemisizfolia L., AMBEL); test: as above; details: rating scale 0-100 (0 no damage, 100 complete death), 14 days after application
In short: as §3

[14] = tested on: green foxtail (Setaria viridis, SETVI); test: as above; details: rating scale 0-100 (0 no damage, 100 complete death), 14 days after application
In short: as §3

[15] = tested on: ivyleaf morningglory (Ipomoea hederacea, IPOHE); test: as above; details: rating scale 0-100 (0 no damage, 100 complete death), 14 days after application
In short: as §3

[16] = tested on: johnsongrass (Sorghum halepense, SORHA); test: as above; details: rating scale 0-100 (0 no damage, 100 complete death), 14 days after application
In short: as §3

[17] = tested on: lambsquarters (Chenopodium album, CHEAL); test: as above; details: rating scale 0-100 (0 no damage, 100 complete death), 14 days after application
In short: as §3

[18] = tested on: large crabgrass (Digitaria sanguinalis, DIGSA); test: as above; details: rating scale 0-100 (0 no damage, 100 complete death), 14 days after application
In short: as §3

[19] = tested on: redroot pigweed (Amaranthus retroflexus, AMARE); test: as above; details: rating scale 0-100 (0 no damage, 100 complete death), 14 days after application
In short: as §3

[20] = tested on: sicklepod (Cassia obtusifolia, CASOB); test: as above; details: rating scale 0-100 (0 no damage, 100 complete death), 14 days after application
In short: as §3

[21] = tested on: velvetleaf (Abutilon theophrasti, ABUTH); test: as above; details: rating scale 0-100 (0 no damage, 100 complete death), 14 days after application
In short: as §3

[22] = tested on: field corn (Zea mays L., var. Dekalb 535, CORN); test: Post-emerge test, crop safety; details: rating scale 0-100 (0 no damage, 100 complete death), 14 days after application
In short: as §1

[23] = tested on: upland rice (Oryza sp., var. Tebonnet, RICE); test: Post-emerge test, crop safety; details: rating scale 0-100 (0 no damage, 100 complete death), 14 days after application
In short: as §1

**Q.** With `CCCOC(=O)C(Cl)Cc1c(OC)c(Cl)cc(F)c1-n1c(=O)cc(C(F)(F)F)n(C)c1=O` (single isomer, unassigned) [14-6] as the compound, how does the “Pre-emerge herbicidal activity, phytotoxicity rating AMARE” value ([1]; 63 g ai/ha) read?
**A.** Its value is 100.

**Q.** And the “Pre-emerge herbicidal activity, phytotoxicity rating AMARE” value ([1]; 250 g ai/ha)?
**A.** Its value is 100.

**Q.** And the “Pre-emerge herbicidal activity, phytotoxicity rating ECHCG” value ([2]; 63 g ai/ha)?
**A.** Its value is 0.

**Q.** What about the “Pre-emerge herbicidal activity, phytotoxicity rating ECHCG” value ([2]; 250 g ai/ha) of the same compound?
**A.** Its value is 70.

**Q.** What about the “Pre-emerge herbicidal activity, phytotoxicity rating SETVI” value ([3]; 63 g ai/ha) of the same compound?
**A.** Its value is 10.

**Q.** What about the “Pre-emerge herbicidal activity, phytotoxicity rating SETVI” value ([3]; 250 g ai/ha) of the same compound?
**A.** Its value is 100.

**Q.** What about the “Pre-emerge herbicidal activity, phytotoxicity rating IPOHE” value ([4]; 63 g ai/ha) of the same compound?
**A.** The value was 10.

**Q.** And the “Pre-emerge herbicidal activity, phytotoxicity rating IPOHE” value ([4]; 250 g ai/ha)?
**A.** The value was 20.

**Q.** What about the “Pre-emerge herbicidal activity, phytotoxicity rating SORHA” value ([5]; 63 g ai/ha) of the same compound?
**A.** Its value is 0.

**Q.** What about the “Pre-emerge herbicidal activity, phytotoxicity rating SORHA” value ([5]; 250 g ai/ha) of the same compound?
**A.** The value was 30.

**Q.** What about the “Pre-emerge herbicidal activity, phytotoxicity rating CHEAL” value ([6]; 63 g ai/ha) of the same compound?
**A.** Its value is 20.

**Q.** And the “Pre-emerge herbicidal activity, phytotoxicity rating CHEAL” value ([6]; 250 g ai/ha)?
**A.** Its value is 100.

**Q.** What about the “Pre-emerge herbicidal activity, phytotoxicity rating DIGSA” value ([7]; 63 g ai/ha) of the same compound?
**A.** The value was 90.

**Q.** And the “Pre-emerge herbicidal activity, phytotoxicity rating DIGSA” value ([7]; 250 g ai/ha)?
**A.** The value was 100.

**Q.** And the “Pre-emerge herbicidal activity, phytotoxicity rating CASOB” value ([8]; 63 g ai/ha)?
**A.** Its value is 30.

**Q.** And the “Pre-emerge herbicidal activity, phytotoxicity rating CASOB” value ([8]; 250 g ai/ha)?
**A.** The value was 30.

**Q.** What about the “Pre-emerge herbicidal activity, phytotoxicity rating ABUTH” value ([9]; 63 g ai/ha) of the same compound?
**A.** Its value is 30.

**Q.** And the “Pre-emerge herbicidal activity, phytotoxicity rating ABUTH” value ([9]; 250 g ai/ha)?
**A.** Its value is 100.

**Q.** What about the “Pre-emerge phytotoxicity rating, crop damage CORN” value ([10]; 63 g ai/ha) of the same compound?
**A.** The value was 0.

**Q.** And the “Pre-emerge phytotoxicity rating, crop damage CORN” value ([10]; 250 g ai/ha)?
**A.** The value was 5.

**Q.** What about the “Pre-emerge phytotoxicity rating, crop damage RICE” value ([11]; 63 g ai/ha) of the same compound?
**A.** The value was 15.

**Q.** What about the “Pre-emerge phytotoxicity rating, crop damage RICE” value ([11]; 250 g ai/ha) of the same compound?
**A.** Its value is 50.

**Q.** What about the “Post-emerge Herbicidal Activity, phytotoxicity rating ECHCG” value ([12]; Rate 63 g ai/ha) of the same compound?
**A.** Its value is 99.

**Q.** And the “Post-emerge Herbicidal Activity, phytotoxicity rating ECHCG” value ([12]; Rate 250 g ai/ha)?
**A.** Its value is 100.

**Q.** And the “Post-emerge Herbicidal Activity, phytotoxicity rating AMBEL” value ([13]; Rate 63 g ai/ha)?
**A.** The value was 40.

**Q.** And the “Post-emerge Herbicidal Activity, phytotoxicity rating AMBEL” value ([13]; Rate 250 g ai/ha)?
**A.** The value was 80.

**Q.** What about the “Post-emerge Herbicidal Activity, phytotoxicity rating SETVI” value ([14]; Rate 63 g ai/ha) of the same compound?
**A.** Its value is 30.

**Q.** And the “Post-emerge Herbicidal Activity, phytotoxicity rating SETVI” value ([14]; Rate 250 g ai/ha)?
**A.** Its value is 80.

**Q.** What about the “Post-emerge Herbicidal Activity, phytotoxicity rating IPOHE” value ([15]; Rate 63 g ai/ha) of the same compound?
**A.** Its value is 70.

**Q.** And the “Post-emerge Herbicidal Activity, phytotoxicity rating IPOHE” value ([15]; Rate 250 g ai/ha)?
**A.** The value was 100.

**Q.** What about the “Post-emerge Herbicidal Activity, phytotoxicity rating SORHA” value ([16]; Rate 63 g ai/ha) of the same compound?
**A.** Its value is 50.

**Q.** What about the “Post-emerge Herbicidal Activity, phytotoxicity rating SORHA” value ([16]; Rate 250 g ai/ha) of the same compound?
**A.** The value was 65.

**Q.** And the “Post-emerge Herbicidal Activity, phytotoxicity rating CHEAL” value ([17]; Rate 63 g ai/ha)?
**A.** Its value is 80.

**Q.** And the “Post-emerge Herbicidal Activity, phytotoxicity rating CHEAL” value ([17]; Rate 250 g ai/ha)?
**A.** The value was 100.

**Q.** And the “Post-emerge Herbicidal Activity, phytotoxicity rating DIGSA” value ([18]; Rate 63 g ai/ha)?
**A.** The value was 50.

**Q.** And the “Post-emerge Herbicidal Activity, phytotoxicity rating DIGSA” value ([18]; Rate 250 g ai/ha)?
**A.** The value was 75.

**Q.** And the “Post-emerge Herbicidal Activity, phytotoxicity rating AMARE” value ([19]; Rate 63 g ai/ha)?
**A.** The value was 95.

**Q.** What about the “Post-emerge Herbicidal Activity, phytotoxicity rating AMARE” value ([19]; Rate 250 g ai/ha) of the same compound?
**A.** The value was 100.

**Q.** And the “Post-emerge Herbicidal Activity, phytotoxicity rating CASOB” value ([20]; Rate 63 g ai/ha)?
**A.** Its value is 50.

**Q.** And the “Post-emerge Herbicidal Activity, phytotoxicity rating CASOB” value ([20]; Rate 250 g ai/ha)?
**A.** The value was 100.

**Q.** And the “Post-emerge Herbicidal Activity, phytotoxicity rating ABUTH” value ([21]; Rate 63 g ai/ha)?
**A.** The value was 90.

**Q.** What about the “Post-emerge Herbicidal Activity, phytotoxicity rating ABUTH” value ([21]; Rate 250 g ai/ha) of the same compound?
**A.** Its value is 100.

**Q.** And the “Post-emerge phytotoxicity rating CORN (crop damage)” value ([22]; Rate 63 g ai/ha)?
**A.** The value was 50.

**Q.** And the “Post-emerge phytotoxicity rating CORN (crop damage)” value ([22]; Rate 250 g ai/ha)?
**A.** Its value is 60.

**Q.** And the “Post-emerge phytotoxicity rating RICE (crop damage)” value ([23]; Rate 63 g ai/ha)?
**A.** The value was 0.

**Q.** What about the “Post-emerge phytotoxicity rating RICE (crop damage)” value ([23]; Rate 250 g ai/ha) of the same compound?
**A.** Its value is 35.
